The values that follow come from US12129223B2, “Lipids for use in lipid nanoparticle formulations” (Acuitas Therapeutics, Inc., priority 2021, dated 2024).

For one data set, the system named is human IgG in mouse serum. In words: Immunoglobulin G (IgG) mRNA in vivo evaluation using lipid nanoparticle compositions. Further details: species or system mice. The settings on record: LNP with IgG mRNA, tail vein injection, serum 24 hours after administration; for Serum IgG @ 0.3 mg/kg: 0.3 mg mRNA/kg; for Serum IgG @ 1.0 mg/kg: 1.0 mg mRNA/kg. Here is the method: (§1) A lipid of structure (I), DSPC, cholesterol and PEG-lipid are solubilized in ethanol at a molar ratio of 50:10:38.5:1.5 or 47.5:10:40.7:1.8. Lipid nanoparticles (LNP) are prepared at a total lipid to mRNA weight ratio of approximately 10:1 to 40:1. Briefly, the mRNA is diluted to 0.2 mg/mL in 10 to 50 mM citrate buffer, pH 4 or 10 to 25 mM acetate buffer, pH 4. Syringe pumps are used to mix the ethanolic lipid solution with the mRNA aqueous solution at a ratio of about 1:5 to 1:3 (vol/vol) with total flow rates above 15 mL/min. The ethanol is then removed and the external buffer replaced with PBS by dialysis. Finally, the lipid nanoparticles are filtered through a 0.2 µm pore sterile filter.
Studies are performed in 6-8 week old CD-1/ICR mice (Envigo) according to guidelines established by an institutional animal care committee (ACC) and the Canadian Council on Animal Care (CCAC). Varying doses of mRNA-lipid nanoparticle are systemically administered by tail vein injection and animals euthanized at a specific time point (e.g., 24 hours) post-administration. The whole blood is collected, and the serum subsequentially separated by centrifuging the tubes of the whole blood at 2000×g for 10 minutes at 4° C. and stored at −80° C. until use for analysis.
For immunoglobulin G (IgG) ELISA (Life Diagnostics Human IgG ELISA kit), the serum samples are diluted at 100 to 15000 folds with 1×diluent solution. 100 μL of diluted serum is dispensed into anti-human IgG coated 96-well plate in duplicate alongside human IgG standards and incubated in a plate shaker at 150 rpm at 25° C. for 45 minutes. The wells are washed 5 times with 1× wash solution using a plate washer (400 μL/well). 100 μL of HRP conjugate is added into each well and incubated in a plate shaker at the same condition above. The wells are washed 5 times again with 1× wash solution using a plate washer (400 μL/well). 100 μL of TMB reagent is added into each well and incubated in a plate shaker at the same condition above. The reaction is stopped by adding 100 μL of Stop solution to each well. The absorbance is read at 450 nm (A450) with a microplate reader. The amount of human IgG in mouse serum is determined by plotting A450 values for the assay standard against human IgG concentration.
(§2) Representative compounds of the disclosure shown in Table 2 were formulated using the following molar ratio: 50% cationic lipid/10% distearoylphosphatidylcholine (DSPC)/38.5% Cholesterol/1.5% PEG lipid 2-[2-(ω-methoxy(polyethyleneglycol2000)ethoxy]-N,N-ditetradecyl acetamide) or 47.5% cationic lipid/10% DSPC/40.7% Cholesterol/1.8% PEG lipid. Relative activity was determined by measuring luciferase expression in the liver 4 hours following administration via tail vein injection as described in Example 1 or by measuring the amount of human IgG in mouse serum as described in example 2. The activity was compared at a dose of 1.0 or 0.5 or 0.3 mg mRNA/kg and expressed as ng luciferase/g liver measured 4 hours after administration, as described in Example 1 or as μg IgG/mL serum measured 24 hours after administration, as described in Example 2. Compound numbers in Table 2 refer to the compound numbers of Table 1.

Data set [1] can be described thus: Determination of pKa of formulated lipids (TNS fluorescence assay in lipid nanoparticles). The settings on record: lipid nanoparticles (compound/DSPC/cholesterol/PEG-lipid), lipid formulated in LNP (lipid/DSPC/cholesterol/PEG-lipid), pH at half-maximal intensity. Format: physicochemical. Here is the method:
As described elsewhere, the pKa of formulated lipids is correlated with the effectiveness of LNPs for delivery of nucleic acids (see Jayaraman et al, Angewandte Chemie, International Edition (2012), 51(34), 8529-8533; Semple et al, Nature Biotechnology 28, 172-176 (2010)). In some embodiments, the preferred range of pKa is ˜5 to ˜7. The pKa of each lipid is determined in lipid nanoparticles using an assay based on fluorescence of 2-(p-toluidino)-6-napthalene sulfonic acid (TNS). Lipid nanoparticles comprising compound of structure (I)/DSPC/cholesterol/PEG-lipid (50/10/38.5/1.5 or 47.5:10:40.7:1.8 mol %) in PBS at a concentration of 0.4 mM total lipid are prepared using the in-line process as described in Example 1. TNS is prepared as a 100 μM stock solution in distilled water. Vesicles are diluted to 24 μM lipid in 2 mL of buffered solutions containing 10 mM HEPES, 10 mM MES, 10 mM ammonium acetate, and 130 mM NaCl, where the pH ranged from 2.5 to 11. An aliquot of the TNS solution is added to give a final concentration of 1 μM and following vortex mixing fluorescence intensity is measured at room temperature in a SLM Aminco Series 2 Luminescence Spectrophotometer using excitation and emission wavelengths of 321 nm and 445 nm. A sigmoidal best fit analysis is applied to the fluorescence data and the pKa is measured as the pH giving rise to half-maximal fluorescence intensity.

Data set [2] has as its system luciferase expression in the liver. In words: Luciferase mRNA in vivo evaluation using lipid nanoparticle compositions. Conditions: LNP with FLuc mRNA, tail vein injection, ng luciferase/g liver 4 hours after administration; for Liver Luc @ 0.3 mg/kg: 0.3 mg mRNA/kg; for Liver Luc @ 1.0 mg/kg: 1.0 mg mRNA/kg. More on the design: species or system mice. Here is the method:
as §1
Studies are performed in 6-8 week old female C57BL/6 mice (Charles River) 8-10 week old CD-1 (Harlan) mice (Charles River) according to guidelines established by an institutional animal care committee (ACC) and the Canadian Council on Animal Care (CCAC). Varying doses of mRNA-lipid nanoparticle are systemically administered by tail vein injection and animals euthanized at a specific time point (e.g., 4 hours) post-administration. Liver and spleen are collected in pre-weighed tubes, weights determined, immediately snap frozen in liquid nitrogen and stored at −80° C. until processing for analysis.
For liver, approximately 50 mg is dissected for analyses in a 2 mL FastPrep tubes (MP Biomedicals, Solon OH). ¼″ ceramic sphere (MP Biomedicals) is added to each tube and 500 μL of Glo Lysis Buffer—GLB (Promega, Madison WI) equilibrated to room temperature is added to liver tissue. Liver tissues are homogenized with the FastPrep24 instrument (MP Biomedicals) at 2×6.0 m/s for 15 seconds. Homogenate is incubated at room temperature for 5 minutes prior to a 1:4 dilution in GLB and assessed using SteadyGlo Luciferase assay system (Promega). Specifically, 50 μL of diluted tissue homogenate is reacted with 50 μL of SteadyGlo substrate, shaken for 10 seconds followed by 5 minute incubation and then quantitated using a CentroXS^3 LB 960 luminometer (Berthold Technologies, Germany). The amount of protein assayed is determined by using the BCA protein assay kit (Pierce, Rockford, IL). Relative luminescence units (RLU) are then normalized to total μg protein assayed. To convert RLU to ng luciferase a standard curve is generated with QuantiLum Recombinant Luciferase (Promega).
The FLuc mRNA (L-6107) from Trilink Biotechnologies will express a luciferase protein, originally isolated from the firefly, Photinus pyralis. FLuc is commonly used in mammalian cell culture to measure both gene expression and cell viability. It emits bioluminescence in the presence of the substrate, luciferin. This capped and polyadenylated mRNA is fully substituted with 5-methylcytidine and pseudouridine.
as §2

Usually pKa stands for the negative logarithm of the acid dissociation constant. On to `CCCCCCCCCCN(CCCCCCCCCC)C(=O)CCCCCCCN(CCCCCCCC(=O)N(CCCCCCCCCC)CCCCCCCCCC)CCCn1ccnc1` [Compound I-48, 8,8′-((3-(1H-imidazol-1-yl)propyl)azanediyl)bis(N,N-didecyloctanamide)], for which, in the data set with human IgG in mouse serum, the “Serum IgG @ 0.3 mg/kg” value turned out to be 1.02 ± 0.20 µg/mL and the “Serum IgG @ 1.0 mg/kg” value was determined as 3.40 ± 0.87 µg/mL. The compound further gave a pKa in data set [1] of 6.63.

Consider `CCCCCCCCCCN(CCCCCCCCCC)C(=O)C(F)CCCCCCN(CCCCCO)CCCCCCC(F)C(=O)N(CCCCCCCCCC)CCCCCCCCCC` (centres unmarked) [Compound I-82, 8,8′-((5-hydroxypentyl)azanediyl)bis(N,N-didecyl-2-fluorooctanamide)], for which, in the data set on human IgG in mouse serum, the “Serum IgG @ 0.3 mg/kg” value came out at 24.36 ± 4.39 µg/mL and the “Serum IgG @ 1.0 mg/kg” value turned out to be 239.26 ± 39.80 µg/mL. In data set [1], this compound showed a pKa of 6.47.

For the compound `CCCCCCCCCCCCN(CCCCCCCCCCCC)C(=O)CCCCCN(C)CCCCCC(=O)N(CCCCCCCCCCCC)CCCCCCCCCCCC` [Compound I-11, 6,6′-(methylazanediyl)bis(N,N-didodecylhexanamide)], in the data set on human IgG in mouse serum, the “Serum IgG @ 0.3 mg/kg” value stood at 8.22 ± 0.84 µg/mL and the “Serum IgG @ 1.0 mg/kg” value is 47.68 ± 5.26 µg/mL. In data set [1], the pKa is 6.67.

Consider `CCCCCCCCCCN(CCCCCCCCN(C)CCCCCCCC(=O)N(CCCCCCCCCC)CCCCCCCCCC)C(=O)CCCCCCCCC` [Compound I-73, N-decyl-N-(8-((8-(didecylamino)-8 oxooctyl)(methyl)amino)octyl)decanamide], for which, in the data set with human IgG in mouse serum, the “Serum IgG @ 0.3 mg/kg” value was 27.72 ± 6.23 µg/mL and the “Serum IgG @ 1.0 mg/kg” value was 213.39 ± 18.85 µg/mL. The compound further showed a pKa in data set [1] of 6.32.

For `CCCCCCCCCCCCN(CCCCCCCCCCCC)C(=O)CCCCCN(CCCCCCO)CCCCCC(=O)N(CCCCCCCCCCCC)CCCCCCCCCCCC` [Compound I-38, 6,6′-((6-hydroxyhexyl)azanediyl)bis(N,N-didodecylhexanamide)], in the data set on human IgG in mouse serum, the “Serum IgG @ 0.3 mg/kg” value was 4.71 ± 0.46 µg/mL and the “Serum IgG @ 1.0 mg/kg” value came out at 45.87 ± 2.33 µg/mL. The pKa in data set [1] was 6.48.

On to `CCCCCCCCCCN(CCCCCCCCN(CCCCCO)CCCCCCCCN(CCCCCCCCCC)C(=O)CCCCCCCCC)C(=O)CCCCCCCCC` [Compound I-66, N,N′-(((5-hydroxypentyl)azanediyl)bis(octane-8,1-diyl))bis(N-decyldecanamide)], for which, in the data set with human IgG in mouse serum, the “Serum IgG @ 0.3 mg/kg” value worked out at 32.06 ± 5.07 µg/mL and the “Serum IgG @ 1.0 mg/kg” value came to 253.37 ± 52.48 µg/mL. The same compound returned a pKa in data set [1] of 6.49.

In the case of `CCCCCCCCCCCCN(CCCCCCCCCCCC)C(=O)CCCCCCCN(CCO)CCCCCCCC(=O)N(CCCCCCCCCCCC)CCCCCCCCCCCC` [Compound I-37, 8,8′-((2-hydroxyethyl)azanediyl)bis(N,N-didodecyloctanamide)], in the data set with human IgG in mouse serum, the “Serum IgG @ 0.3 mg/kg” value is 1.75 ± 0.58 µg/mL and the “Serum IgG @ 1.0 mg/kg” value was found to be 10.05 ± 2.32 µg/mL. In addition, the pKa in data set [1] stood at 6.39.

In the case of `CCCCCCCCCCN(CCCCCCCCCC)C(=O)CCCCCCCN(CCCCCCCC(=O)N(CCCCCCCCCC)CCCCCCCCCC)CCN(C)C` [Compound I-77], the “Serum IgG @ 0.3 mg/kg” value with human IgG in mouse serum was found to be 17.45 ± 2.05 µg/mL. In data set [1], this compound displayed a pKa of 6.71.

`CCCCCCCCCCN(CCCCCCCCCC)C(=O)CCCCCCCN(CCCCCCCC(=O)N(CCCCCCCCCC)CCCCCCCCCC)CCCn1ccnc1C` [Compound I-44, 8,8′-((3-(2-methyl-1H-imidazol-1-yl)propyl)azanediyl)bis(N,N-didecyloctanamide)]: in the data set on human IgG in mouse serum, the “Serum IgG @ 0.3 mg/kg” value is 0.59 ± 0.11 µg/mL and the “Serum IgG @ 1.0 mg/kg” value was found to be 1.86 ± 0.27 µg/mL. For the same compound, the pKa in data set [1] turned out to be 6.69.

On to `CCCCCCCCCCN(CCCCCCCCCC)C(=O)CCCCCCCN(CCCCCCCC(=O)N(CCCCCCCCCC)CCCCCCCCCC)CCOCCOC` [Compound I-46, 8,8′-((2-(2-methoxyethoxy)ethyl)azanediyl)bis(N,N-didecyloctanamide)], for which, in data set [2], the “Liver Luc @ 0.3 mg/kg” value stood at 10201 ± 2440 ng/g and the “Liver Luc @ 1.0 mg/kg” value turned out to be 52937 ± 8101 ng/g. In data set [1], this compound displayed a pKa of 5.91.

Regarding `CCCCCCCCCCN(CCCCCCCCCC)C(=O)CCCCCCCCCN(CCCCCCCCCC(=O)N(CCCCCCCCCC)CCCCCCCCCC)CCCNc1c(NC)c(=O)c1=O` [Compound I-60, 10,10′-((3-((2-(methylamino)-3,4-dioxocyclobut-1-en-1-yl)amino)propyl)azanediyl)bis(N,N-didecyldecanamide)], in data set [2], the “Liver Luc @ 0.3 mg/kg” value is 2176 ± 162 ng/g and the “Liver Luc @ 1.0 mg/kg” value was 9178 ± 2483 ng/g. Further, the pKa in data set [1] came out at 6.38.

Consider `CCCCCCCCCCN(CCCCCCCCCC)C(=O)CCCCCCCCCN(CCCCO)CCCCCCCCCC(=O)N(CCCCCCCCCC)CCCCCCCCCC` [Compound I-25, 10,10′-((4-hydroxybutyl)azanediyl)bis(N,N-didecyldecanamide)], for which, in data set [2], the “Liver Luc @ 0.3 mg/kg” value is 20276 ± 3044 ng/g and the “Liver Luc @ 1.0 mg/kg” value is 64656 ± 24090 ng/g. The same compound returned a pKa in data set [1] of 6.28.

Take `CCCCCCCCCCCCCCCC(=O)N(CCCCCC)CCCCCCN(C)CCCCCCN(CCCCCC)C(=O)CCCCCCCCCCCCCCC` [Compound I-9, N,N′-((methylazanediyl)bis(hexane-6,1-diyl))bis(N-hexylpalmitamide)]: in data set [2], the “Liver Luc @ 0.3 mg/kg” value amounted to 4337 ± 1394 ng/g and the “Liver Luc @ 1.0 mg/kg” value is 21023 ± 12693 ng/g. The compound also displayed a pKa in data set [1] of 6.83.
